Assay results: the CheMixHub viscosity set
Values joined by “and” are separate entries in the source; they are usually repeats but may differ in a detail not shown here. Equal values may be shown once.

C1CCOC1
Conditions | viscosity
293.15 K, 101.33 kPa | 0.48 mPa·s
298 K, 101 kPa | 0.4608 mPa·s
298 K, 101.33 kPa | 0.461 mPa·s
298.15 K, 101.33 kPa | 0.53 mPa·s and 0.481 mPa·s and 0.472 mPa·s
303 K, 101 kPa | 0.42 mPa·s and 0.42 mPa·s
303 K, 101.3 kPa | 0.422 mPa·s
303.15 K, 101.32 kPa | 0.449 mPa·s
303.15 K, 101.33 kPa | 0.4496 mPa·s and 0.45 mPa·s and 0.45 mPa·s
308 K, 101.33 kPa | 0.42 mPa·s
313 K, 101 kPa | 0.39 mPa·s and 0.39 mPa·s
313 K, 101.3 kPa | 0.402 mPa·s
313.15 K, 100 kPa | 0.39 mPa·s
313.15 K, 101.33 kPa | 0.4066 mPa·s
323.15 K, 101.33 kPa | 0.3696 mPa·s

CC(C)=O
Conditions | viscosity
293.15 K, 100 kPa | 0.3276 mPa·s and 0.3276 mPa·s
293.15 K, 101.32 kPa | 0.318 mPa·s
293.15 K, 101.33 kPa | 0.337 mPa·s and 0.321 mPa·s
293.16 K, 101 kPa | 0.326 mPa·s
293.2 K, 101 kPa | 0.323 mPa·s
294.15 K, 101 kPa | 0.362 mPa·s
296 K, 101.3 kPa | 0.311 mPa·s
298.15 K, 100 kPa | 0.3186 mPa·s and 0.3186 mPa·s
298.15 K, 101.3 kPa | 0.316 mPa·s
298.15 K, 101.33 kPa | 0.3013 mPa·s and 0.3049 mPa·s and 0.307 mPa·s
298.16 K, 101 kPa | 0.316 mPa·s
302.4 K, 101 kPa | 0.5915 mPa·s
302.95 K, 101 kPa | 0.295 mPa·s
303.05 K, 101 kPa | 0.335 mPa·s
303.15 K, 100 kPa | 0.3091 mPa·s and 0.3091 mPa·s and 0.303 mPa·s
303.15 K, 101.33 kPa | 0.295 mPa·s and 0.298 mPa·s and 0.339 mPa·s
303.16 K, 101 kPa | 0.295 mPa·s
303.95 K, 101 kPa | 0.3366 mPa·s
307.35 K, 101.33 kPa | 0.29 mPa·s
308.15 K, 100 kPa | 0.2992 mPa·s and 0.2992 mPa·s
311.35 K, 101 kPa | 0.3166 mPa·s
313.15 K, 100 kPa | 0.289 mPa·s and 0.289 mPa·s and 0.276 mPa·s
313.15 K, 101.33 kPa | 0.3089 mPa·s
313.25 K, 101 kPa | 0.27 mPa·s
318.15 K, 100 kPa | 0.2784 mPa·s and 0.2784 mPa·s
318.15 K, 101 kPa | 0.279 mPa·s and 0.2649 mPa·s
318.15 K, 101.32 kPa | 0.2496 mPa·s
322.95 K, 101 kPa | 0.248 mPa·s
323.15 K, 100 kPa | 0.2673 mPa·s and 0.2673 mPa·s and 0.255 mPa·s
323.15 K, 101.33 kPa | 0.2871 mPa·s

CC(C)CC(=O)O
101.33 kPa
Conditions | viscosity [mPa·s]
293.15 K | 2.411
313.15 K | 1.672

CC(C)C[P+](C)(CC(C)C)CC(C)C.Cc1ccc(S(=O)(=O)[O-])cc1
Conditions | viscosity [mPa·s]
293.15 K, 101 kPa | 1320

CC1COC(=O)O1 (centres undefined)
viscosity
Conditions | 293.15 K | 298.15 K | 303.15 K | 308.15 K | 313.15 K | 318.15 K | 323.15 K
99.7 kPa | – | – | 2.212 mPa·s | – | 1.998 mPa·s | – | 1.766 mPa·s
100 kPa | – | 2.53 mPa·s | – | – | – | – | –
101 kPa | 2.938 mPa·s and 2.738 mPa·s and 2.72 mPa·s | 2.531 mPa·s and 2.468 mPa·s and 2.51 mPa·s | 2.24 mPa·s and 2.3 mPa·s and 2.29 mPa·s | – | – | 1.654 mPa·s and 1.724 mPa·s and 1.85 mPa·s | 1.538 mPa·s and 1.595 mPa·s
101.3 kPa | 2.746 mPa·s and 2.763 mPa·s and 2.762 mPa·s | – | 2.246 mPa·s and 2.3 mPa·s and 2.149 mPa·s | 2.049 mPa·s and 2.046 mPa·s | 1.879 mPa·s and 1.902 mPa·s | 1.73 mPa·s and 1.755 mPa·s and 1.703 mPa·s | 1.6 mPa·s
101.33 kPa | 2.721 mPa·s | – | 2.237 mPa·s | – | 1.863 mPa·s | – | –

CCCC(=O)[O-].OCC[NH2+]CCO
101.3 kPa
Conditions | viscosity [mPa·s]
293.15 K | 1832
298.15 K | 1226
303.15 K | 839.8
308.15 K | 588.7
313.15 K | 421.1
318.15 K | 307.1
323.15 K | 227.9

CCCc1ccccc1
Conditions | viscosity [mPa·s]
303.15 K, 101 kPa | 0.7591
303.15 K, 101.3 kPa | 0.75
308.15 K, 101.33 kPa | 0.7001
313.15 K, 102 kPa | 0.649
323.15 K, 102 kPa | 0.573

CCOCCn1cc[n+](C)c1.C[C@@H](O)[C@H](N)C(=O)[O-]
100 kPa
Conditions | viscosity [mPa·s]
298.15 K | 1133
303.15 K | 730.3
308.15 K | 438.8
313.15 K | 312.5
318.15 K | 206.8
323.15 K | 153.8

CCOCCn1cc[n+](CCC#N)c1.O=S(=O)([N-]S(=O)(=O)C(F)(F)F)C(F)(F)F
101.33 kPa
Conditions | viscosity [mPa·s]
293.15 K | 401.1
303.15 K | 235.6
313.15 K | 146.2
323.15 K | 105

COc1ccccc1
Conditions | viscosity
293.15 K, 101.33 kPa | 1.05 mPa·s and 1.143 mPa·s
298.15 K, 101 kPa | 0.9912 mPa·s and 1 mPa·s and 0.9785 mPa·s
298.15 K, 101.3 kPa | 0.99 mPa·s and 0.991 mPa·s
303 K, 100 kPa | 0.9804 mPa·s
303 K, 101 kPa | 0.9804 mPa·s
303 K, 101.3 kPa | 0.981 mPa·s
303.15 K, 100 kPa | 0.923 mPa·s
303.15 K, 101.3 kPa | 0.916 mPa·s and 0.915 mPa·s and 0.923 mPa·s
308.15 K, 101 kPa | 0.856 mPa·s and 0.856 mPa·s and 0.8422 mPa·s
313 K, 100 kPa | 0.7623 mPa·s
313 K, 101 kPa | 0.7623 mPa·s
313.15 K, 100 kPa | 0.764 mPa·s
318.15 K, 101 kPa | 0.745 mPa·s and 0.745 mPa·s
318.15 K, 101.33 kPa | 0.739 mPa·s
323 K, 100 kPa | 0.6146 mPa·s
323 K, 101 kPa | 0.6146 mPa·s
323.15 K, 101 kPa | 0.692 mPa·s and 0.692 mPa·s and 0.72 mPa·s
323.15 K, 101.33 kPa | 0.691 mPa·s and 0.691 mPa·s and 0.69 mPa·s

C[N+](C)(C)CCO.O=S(=O)([N-]S(=O)(=O)C(F)(F)F)C(F)(F)F
101 kPa
Conditions | viscosity [mPa·s]
298.15 K | 144.8
313.15 K | 56.44
318.15 K | 46.77
323.15 K | 39.28

Cc1ccccc1
Conditions | viscosity
293.15 K, 100 kPa | 0.598 mPa·s
293.15 K, 101.2 kPa | 0.6003 mPa·s
293.15 K, 101.32 kPa | 0.5859 mPa·s
293.15 K, 101.33 kPa | 0.592 mPa·s
295.85 K, 101.33 kPa | 0.5984 mPa·s
298 K, 101.33 kPa | 0.546 mPa·s
298.15 K, 100 kPa | 0.551 mPa·s
298.15 K, 101.33 kPa | 0.506 mPa·s
302.4 K, 101 kPa | 0.9538 mPa·s
303 K, 100 kPa | 0.5268 mPa·s
303 K, 101.33 kPa | 0.514 mPa·s and 0.515 mPa·s
303.15 K, 100 kPa | 0.539 mPa·s
303.15 K, 101.2 kPa | 0.5357 mPa·s
303.15 K, 101.3 kPa | 0.5272 mPa·s
305.45 K, 101.33 kPa | 0.5375 mPa·s
308 K, 100 kPa | 0.4984 mPa·s
308.15 K, 100 kPa | 0.498 mPa·s
308.15 K, 101.2 kPa | 0.5069 mPa·s
308.15 K, 101.3 kPa | 0.492 mPa·s and 0.4981 mPa·s and 0.503 mPa·s
308.5 K, 101 kPa | 0.512 mPa·s
312.65 K, 101.33 kPa | 0.4982 mPa·s
313 K, 100 kPa | 0.4811 mPa·s
313 K, 101.33 kPa | 0.463 mPa·s and 0.461 mPa·s
313.15 K, 100 kPa | 0.495 mPa·s
313.15 K, 101 kPa | 0.4601 mPa·s and 0.4804 mPa·s and 0.559 mPa·s
313.15 K, 101.2 kPa | 0.4807 mPa·s
313.15 K, 101.33 kPa | 0.478 mPa·s and 0.478 mPa·s and 0.481 mPa·s
318.15 K, 100 kPa | 0.44 mPa·s
318.15 K, 101.2 kPa | 0.4571 mPa·s
318.15 K, 101.32 kPa | 0.4428 mPa·s
318.15 K, 101.33 kPa | 0.458 mPa·s
322.65 K, 101.33 kPa | 0.45 mPa·s
323 K, 101.33 kPa | 0.413 mPa·s and 0.418 mPa·s
323.15 K, 101 kPa | 0.4435 mPa·s and 0.418 mPa·s and 0.4321 mPa·s

O=C(O)CBr
Conditions | viscosity [mPa·s]
323.15 K, 101 kPa | 3.65
